One data set deals with axillary malodor. Description: topical treatment of axillary malodor on the skin. In kind it is in vivo, human. Conditions: for effect against axillary malodors: topical application to armpits, applicants' own experiments; for outcome of treatment of repeated infections: overnight. The text has this:
Non-prescription azoles sold in groceries are intended for treating feet or vaginal fungal infections. Essentially the same compositions are often sold for feet and vaginal applications under different labels and in different forms. For axillary use, we strongly prefer them as creams.
In our experiments, we treated the armpits, then switched to all new underwear, and rigorously sterilized it with chlorine-based bleaches after every use. […]
A person, low perspiration, axillary malodor since puberty. […] Now uses peroxide bleach all the time.

The nature of data set [1]: skin tolerability on armpit application.
Text: (§1) Undecylenic acid, salicylic acid and peroxides suffer from certain disadvantages.
The conditions of data set [2]: in vivo.
Text: as §1

Like-named read-outs stand apart in the source and are kept apart here.

Consider `Clc1ccccc1C(c1ccccc1)(c1ccccc1)n1ccnc1` [clotrimazole], for which the “time at which the odor disappears” value with axillary malodor (mature axillary malodor, cream two times a day, two weeks treatment) was “between the fourth and the seventh day”.

As for `Cc1cccc(N(C)C(=S)Oc2ccc3ccccc3c2)c1` [tolnaftate], the “effect against axillary malodors” value with axillary malodor is on record as “some effect”. On to `Clc1ccc(C(Cn2ccnc2)OCc2ccsc2Cl)c(Cl)c1` (stereo not shown) [tioconazole], for which the “outcome of treatment of repeated infections” value in the data set on axillary malodor (person, one-time treatment) is listed as “cured”. For the same molecule, in the data set on axillary malodor (vaginal tioconazole product, topical on armpits), the “effectiveness compared with clotrimazole” value was “much more effective than clotrimazole”. Turning to `CN(C/C=C/C#CC(C)(C)C)Cc1cccc2ccccc12` [Terbinafine], in the data set on axillary malodor, the “effect against axillary malodors” value was “some effect”. As to `OO` [hydrogen peroxide], the “effect against axillary malodors” value in the data set with axillary malodor is recorded as “functional”. For `O=C(O)c1ccccc1O` [salicylic acid], the “effect against axillary malodors” value in the data set with axillary malodor is “functional”. In addition, the adverse skin effects entry in data set [1] is “may cause pain, burning and irritations”. Consider `Clc1ccc(COC(Cn2ccnc2)c2ccc(Cl)cc2Cl)c(Cl)c1` (stereo not shown) [miconazole], for which, in the data set with axillary malodor (person, two times in a row), the “outcome of treatment of repeated infections” value was “cured”. The “outcome of first treatment of axillary malodor” value with axillary malodor (person, two applications per day, seven days in a row) is recorded as “Successfully treated”. For `C=CCCCCCCCCC(=O)O` [Undecylenic acid], in the data set on axillary malodor, the “effect against axillary malodors” value is reported as “functional”. Further, the adverse skin effects result in data set [2] was “may cause pain, burning and irritations”.

With `O=C(OOC(=O)c1ccccc1)c1ccccc1` [benzoyl peroxide], the “effect against axillary malodors” value with axillary malodor is listed as “functional”.
